The values that follow come from patent US20230075365A1, “HERBICIDE COMBINATIONS COMPRISING GLUFOSINATE AND SELECTED PPO INHIBITORS” (BASF SE, priority 2020, published 2023).

Each structure is given as a SMILES string.

Assay [1] relates to Velvetleaf. Nature of the assay: Greenhouse post emergence treatment (Acifluorfen test method), herbicidal activity against Velvetleaf. Format: in vivo, Abutilon theophrasti. How it is done:
Pots with 0.8 L of volume were filled with soil (Sungro Horticulture, Agawam, Mass. 01001) to grow one plant per pot in the greenhouse until the desired developmental stage. Environmental conditions inside the greenhouse were set up for 30° C., 50% relative humidity, and 12 hr light day-1 with natural sunlight or 760 umol m-1 s-1 PAR (Photosynthetically active radiation) for cloudy days. Glufosinate applications were always performed in full sunlight to achieve maximum activity Pots with test plants grown to 3.5 to 4.5 inch (8.9 to 11.4 cm) tall were treated with the herbicidal compositions, which were obtained by diluting commercially available formulations with deionized water to desired concentration, and then sprayed using finely distributing nozzles on to the plants. The test period extended over 21 days after treatment (DAT). During this time, the plants were tended and their response to the individual treatments was evaluated.
The evaluation was done by calculating using the following Colby equation, wherein X was the effect in percent using acifluorfen at an application rate a, Y was the effect in percent using glufosinate at application rate b, and E was the expected effect (in %) of acifluorfen plus glufosinate at application rates a+b.
The value E corresponds to the effect (plant damage or injury) which is to be expected if the activity of the individual compounds is just additive. If the observed effect is higher than the value E calculated according to Colby, a synergistic effect is present.
The evaluation for the damage caused by the chemical compositions was carried out using a scale from 0 to 100%, compared to the untreated control plants. Here, 0 means no damage and 100 means complete destruction of the plants.
Adjuvants of ammonium sulfate (as AMS Liquid) and non-ionic surfactant (NIS, here as Induce) at rates of 1680 g/ha and 0.25% (v/v), respectively, were added in all treatments with Acifluorfen.

In assay [2] the test system is Kochia. Nature of the assay: Greenhouse post emergence treatment, visual herbicidal activity against Kochia. Format: in vivo, Bassia scoparia. Particulars: scale from 0 to 100. The source says: (§1) Synergism can be described as an interaction where the combined effect of two or more compounds is greater than the sum of the individual effects of each of the compounds. The presence of a synergistic effect in terms of percent control, between two mixing partners (X and Y) can be calculated using the Colby equation (Colby, S. R., 1967, Calculating Synergistic and Antagonistic Responses in Herbicide Combinations, Weeds, 15, 21-22):
(§2) When the observed combined control effect is greater than the expected (calculated) combined control effect (E), then the combined effect is synergistic.
(§3) Pots with 0.3 L of volume were filled with soil (SunGro Horticulture, Agawam, Mass. 01001) to grow one plant per pot in the greenhouse until the desired developmental stage. Environmental conditions inside the greenhouse were set up for 25° C., 75% relative humidity, and 12 h light day-1 with natural sunlight or 500 μmol m-1 s-1 PAR (photosynthetically active radiation) for cloudy days. Glufosinate applications were always performed in full sunlight to achieve maximum activity. The test period extended to 2 to 21 days after treatment. During this time, the plants were tended, and their response to the individual treatments was evaluated. The evaluation was carried out by visual control using a scale from 0 to 100. 100 means no emergence of the plants or complete destruction of at least the above-ground parts, and 0 means no damage, or normal course of growth. Data shown are the mean of three replications.

For assay [3], the system named is Waterhemp. The assay is described as follows: Greenhouse post emergence treatment, visual herbicidal activity against Waterhemp. The class given is in vivo, Amaranthus tuberculatus. To be noted: scale from 0 to 100.
Excerpt: as §1, §2
as §3, with “100 means no emergence of the plants or complete destruction of at least the above-ground parts, and 0 means no damage, or normal course of growth. Data shown are the mean of three replications.” left out

In the case of `O=C(O)c1cc(Oc2ccc(C(F)(F)F)cc2Cl)ccc1[N+](=O)[O-]` [Acifluorfen], the “Herbicidal activity against Velvetleaf, solo application, % activity” value in assay [1] (Acifluorfen 7.176 g ai/ha solo, 7 DAT) is 38%; in assay [1] (Acifluorfen 7.176 g ai/ha solo, 14 DAT) it was 40%; in assay [1] (Acifluorfen 7.176 g ai/ha solo, 21 DAT), 33%.
Turning to `CS(=O)(=O)NC(=O)c1cc(Oc2ccc(C(F)(F)F)cc2Cl)ccc1[N+](=O)[O-]` [Fomesafen], in assay [2] (Fomesafen 7.1 g ai/ha solo), the “Herbicidal activity against Kochia (21 DAT), Found” value (“Herbicidal activity against Kochia” for short) was determined as 25.
As for `CCOC(=O)C(C)OC(=O)c1cc(Oc2ccc(C(F)(F)F)cc2Cl)ccc1[N+](=O)[O-]` (centres unmarked) [Lactofen], the “Herbicidal activity against Kochia” value in assay [2] (Lactofen 5.2 g ai/ha solo) came out at 25. Further, the “Herbicidal activity against Waterhemp (1 DAT), Found” value in assay [3] (Lactofen 5 g ai/ha solo) came out at 3.
As for `CP(=O)(O)CCC(N)C(=O)O` (racemic) [Glufosinate, (2RS)-2-amino-4-[hydroxy(methyl)phosphinoyl]butyric acid], the “Herbicidal activity against Kochia” value in assay [2] (Glufosinate 420 g ai/ha solo) came out at 25. Further, the “Herbicidal activity against Waterhemp (1 DAT), Found” value in assay [3] (Glufosinate 280 g ai/ha solo) is recorded as 18. Also, the “Herbicidal activity against Velvetleaf, solo application, % activity” value in assay [1] (Glufosinate 123 g ai/ha solo, 7 DAT) turned out to be 49%; in assay [1] (Glufosinate 123 g ai/ha solo, 14 DAT), 56%; in assay [1] (Glufosinate 123 g ai/ha solo, 21 DAT) it was 45%.
